Results: patent publication US7728040B1, “Polyamine conjugates as selective NMDA inhibitors and anti-cancer drugs” (University of Central Florids Research Foundation, Inc., priority 2002, dated 2010)
Where a name gives a salt, the structure may show the parent alone.

Columns and labels:
L1210 cells = experiment: Cytotoxicity in L1210 cells; assay type: cell-based; conditions: Mus musculus; L1210 cells, no DFMO; read-out: L1210 IC50
L1210 cells + DFMO = experiment: Cytotoxicity in L1210 cells pretreated with DFMO; assay type: cell-based, mouse; conditions: for IC50: Mus musculus, L1210 cells pretreated with DFMO, read-out: L1210 + DFMO IC50; for L1210/(L1210 + DFMO) IC50 ratio: fold more toxic in the presence of DFMO
polyamine transporter = experiment: Ki, affinity for the polyamine transporter in L1210 cells; assay type: binding, mouse
Procedure: Biological Evaluation. Three cell lines were chosen for bioassay. L1210 (mouse leukemia) cells were selected for comparison with the published IC50 and Ki values determined for a variety of polyamine substrates. In this regard both Ki and IC50 values were measured in this line for comparison purposes. Chinese hamster ovary (CHO) cells were chosen along with a mutant cell line (CHO-MG) in order to comment on polyamine transporter affinity and cell selectivity. The CHO-MG cell line is polyamine-transport deficient and was isolated after chronic selection for growth resistance to methylglyoxalbis (guanylhydrazone). For the purposes of this study, the CHO-MG cell line represents cells with limited polyamine transport activity. In contrast, the parent CHO cell line illustrates cell types with active polyamine transport. Comparison of efficacy in these two lines provided an important screen to detect conjugate delivery via the polyamine transporter, PAT. For example, a conjugate with high utilization of the transporter would be very toxic to CHO cells, but less so to CHO-MG cells. Therefore, IC50 determination in these two CHO lines provided a relative ranking of delivery via the PAT.

CHO-MG cells = experiment: Cytotoxicity in CHO-MG cells (polyamine-transport deficient); assay type: cell-based, Chinese hamster; conditions: Cricetulus griseus, polyamine-transport deficient line, read-out: CHO-MG IC50
CHO cells = experiment: Cytotoxicity in CHO cells (active polyamine transporter); assay type: cell-based, Chinese hamster; conditions: for IC50: Cricetulus griseus, CHO, active polyamine transporter, read-out: CHO IC50; for CHO-MG/CHO IC50 ratio: selectivity for cells with active polyamine transporter
NR1/NR2A NMDA receptor = NR1/NR2A NMDA receptor (Homo sapiens, UniProt Q05586+Q12879); experiment: Inhibition of NMDA receptor NR1/NR2A function; assay type: cell-based
Chain of NR1/NR2A NMDA receptor (Q12879 23-1464, other chains not shown): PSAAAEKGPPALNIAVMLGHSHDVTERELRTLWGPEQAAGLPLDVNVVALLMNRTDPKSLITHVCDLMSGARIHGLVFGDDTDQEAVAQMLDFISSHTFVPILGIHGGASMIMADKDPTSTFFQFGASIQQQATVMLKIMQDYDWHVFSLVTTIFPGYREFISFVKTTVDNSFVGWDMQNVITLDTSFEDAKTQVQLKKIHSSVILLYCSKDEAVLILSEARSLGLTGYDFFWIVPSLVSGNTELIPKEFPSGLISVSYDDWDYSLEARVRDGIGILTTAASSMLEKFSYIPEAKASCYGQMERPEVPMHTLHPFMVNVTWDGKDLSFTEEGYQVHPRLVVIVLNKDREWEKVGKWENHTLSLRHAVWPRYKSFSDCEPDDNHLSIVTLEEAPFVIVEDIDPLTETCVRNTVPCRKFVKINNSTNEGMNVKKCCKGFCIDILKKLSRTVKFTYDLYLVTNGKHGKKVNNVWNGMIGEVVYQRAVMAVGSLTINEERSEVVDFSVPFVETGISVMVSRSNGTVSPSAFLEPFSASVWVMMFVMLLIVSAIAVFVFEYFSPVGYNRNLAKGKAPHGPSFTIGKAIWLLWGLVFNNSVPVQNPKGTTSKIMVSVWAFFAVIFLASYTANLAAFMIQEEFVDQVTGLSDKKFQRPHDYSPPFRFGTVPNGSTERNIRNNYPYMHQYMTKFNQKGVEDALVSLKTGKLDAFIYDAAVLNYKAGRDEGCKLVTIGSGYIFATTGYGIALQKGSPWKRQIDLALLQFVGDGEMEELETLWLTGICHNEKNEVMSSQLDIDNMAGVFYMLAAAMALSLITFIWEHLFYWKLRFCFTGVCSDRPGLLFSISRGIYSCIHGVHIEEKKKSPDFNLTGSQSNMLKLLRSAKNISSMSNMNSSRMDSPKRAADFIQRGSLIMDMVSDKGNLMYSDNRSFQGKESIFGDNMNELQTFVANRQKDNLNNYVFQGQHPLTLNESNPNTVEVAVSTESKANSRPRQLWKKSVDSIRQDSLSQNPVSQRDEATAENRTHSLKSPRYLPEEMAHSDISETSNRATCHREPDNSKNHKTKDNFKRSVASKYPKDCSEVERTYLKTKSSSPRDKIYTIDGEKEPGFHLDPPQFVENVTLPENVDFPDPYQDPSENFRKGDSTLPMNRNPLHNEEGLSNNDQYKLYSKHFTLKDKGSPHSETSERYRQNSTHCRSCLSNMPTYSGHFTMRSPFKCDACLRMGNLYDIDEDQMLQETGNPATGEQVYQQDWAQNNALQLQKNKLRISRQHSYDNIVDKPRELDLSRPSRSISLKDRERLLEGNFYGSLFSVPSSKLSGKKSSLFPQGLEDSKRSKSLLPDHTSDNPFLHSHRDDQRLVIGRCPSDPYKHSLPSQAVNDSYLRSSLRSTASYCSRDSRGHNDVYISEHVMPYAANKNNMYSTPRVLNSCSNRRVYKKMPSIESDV

| IC50 (NR1/NR2A NMDA receptor) [µM] | SMILES | IC50 (L1210 cells) [µM] | IC50 (L1210 cells + DFMO) [µM] | L1210/(L1210 + DFMO) IC50 ratio (L1210 cells + DFMO) | Ki (polyamine transporter) [µM] | IC50 (CHO-MG cells) [µM] | IC50 (CHO cells) [µM] | CHO-MG/CHO IC50 ratio (CHO cells) |
| --- | --- | --- | --- | --- | --- | --- | --- | --- |
|  | Cl.Cl.Cl.NCCCCCN(CCCCN)Cc1c2ccccc2cc2ccccc12 [Compound 8g, N-(4-Amino-butyl)-N-anthracen-9-ylmethyl-pentane-1,5-diamine, trihydrochloride] | 0.4 | 0.3 | 1.3 | 1.7 | 57.3 | 1.5 | 38 |
|  | Cl.Cl.Cl.NCC(O)CNCCCCNCc1c2ccccc2cc2ccccc12 (stereo not drawn) [Compound 30, 1-Amino-3-{4-[(anthracen-9-ylmethyl)-amino]-butylamino}-propan-2-ol Trihydrochloride] | 1.5 | 2.3 | 0.7 | 12.5 | 9.5 | 9.1 | 1 |
| 519 | NCCCNCCCCNCCCN [Spermine] |  |  |  |  |  |  |  |
|  | Cl.Cl.Cl.NCCCCNCCCCNCc1ccccc1 [Compound 27a, N-(4-Amino-butyl)-N′-benzene-1-ylmethyl-butane-1,4-diamine Trihydrochloride] | 36.3 | 421 | 0.1 | 4.5 | > 1000 | > 1000 |  |
|  | CCCCNCc1c2ccccc2cc2ccccc12 [Compound 35, N^1-Anthracen-9-ylmethyl-butylamine Monohydrochloride] | 14.6 | 21.9 | 0.7 | 62.3 | 11.2 | 10.5 | 1.1 |
|  | Cl.Cl.NCCCCNCc1c2ccccc2cc2ccccc12 [Compound 34, N^1-Anthracen-9-ylmethyl-butane-1,4-diamine Dihydrochloride] | 6.3 | 9.78 | 0.7 | 32.2 | 7.6 | 7.7 | 1 |
|  | NCCCCNCCCNCCCNCc1c2ccccc2cc2ccccc12 [Compound 13a, N^1-{3-[3-(Anthracen-9-ylmethyl)-amino]-propylamino}-butane-1,4-diamine Tetrahydrochloride] | 21.8 | 21.9 | 1 | 0.107 | 41.5 | 44 | 0.9 |
|  | Cl.Cl.NCCOCCOCCNCc1c2ccccc2cc2ccccc12 [Compound 33, 2-(2-{2-[(Anthracen-9-ylmethyl)-amino]-ethoxy}-ethoxy)-ethylamine Dihydrochloride] | 11.3 | 17 | 0.7 | 90 | 15.9 | 12.6 | 1.3 |
|  | Cl.Cl.Cl.NCCCN(CCCN)Cc1c2ccccc2cc2ccccc12 [Compound 8b, N-(3-Amino-propyl)-N-anthracen-9-ylmethyl-propane-1,3-diamine, trihydrochloride] | 1.8 | 1.4 | 1.3 | 33.4 | 3.4 | 1.9 | 1.8 |
|  | Cl.Cl.Cl.Cl.NCCCCNCCCCN(CCCCN)Cc1c2ccccc2cc2ccccc12 [Compound 13f, N-[4-(4-Amino-butylamino)-butyl]-N-anthracen-9-ylmethyl-butane-1,4-diamine Tetrahydrochloride] | 7.5 | 1.6 | 4.7 | 0.051 | 33.2 | 10.6 |  |
|  | Cl.Cl.NCCCCCCCCNCc1c2ccccc2cc2ccccc12 [Compound 32, N^1-Anthracen-9-ylmethyl-octane-1,8-diamine Dihydrochloride] | 3 | 4.6 | 0.7 | 13.3 | 4.9 | 4.9 | 1 |
